Marks after values point to notes of the source that are not given here.
Key:
Assay type in all cases: in vivo
[1] = system: Septoria tritici (the causal agent of wheat leaf blotch); assay: Test B: wheat leaf blotch, preventive spray on wheat seedlings, visual disease rating; conditions: wheat leaf blotch, preventive spray on wheat seedlings
Outline: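 Wheat seedlings sprayed to run-off with compound suspension (acetone/water with 250 ppm Trem 014; 200 ppm ≈ 800 g/ha, some at 40 ppm), inoculated next day with Septoria tritici spores. 48 h saturated humidity at 24 °C, then 19 days at 20 °C; visual rating, 100 = full control.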

[2] = system: Botrytis cinerea (the causal agent of tomato Botrytis); assay: Test C: tomato Botrytis, preventive spray on tomato seedlings, visual disease rating; conditions: tomato Botrytis, preventive spray on tomato seedlings
Outline: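 Test suspension (acetone/water with 250 ppm Trem 014; 200 ppm equivalent to 800 g/ha) sprayed to run-off on tomato seedlings; B. cinerea spores inoculated next day. After 48 h saturated humidity at 20° C then 3 days at 24° C, disease rated visually as % control relative to untreated controls (0–100).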

[3] = system: Blumeria graminis f. sp. tritici (also known as Erysiphe graminis f. sp. tritici, the causal agent of wheat powdery mildew); assay: Test D: wheat powdery mildew, preventive spray on wheat seedlings, visual disease rating; conditions: wheat powdery mildew, preventive spray on wheat seedlings
Outline: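 Compound suspended in acetone/water (50/50) with 250 ppm Trem 014 and sprayed to run-off on wheat seedlings (200 ppm ≈ 800 g/ha), then inoculated next day with spore dust. Disease rated visually after 8 days at 20 °C as % control relative to untreated plants (0-100).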

[4] = system: Puccinia recondite f. sp. tritici (the causal agent of wheat leaf rust); assay: Test A: wheat leaf rust, preventive spray on wheat seedlings, visual disease rating; conditions: wheat leaf rust, preventive spray on wheat seedlings
Outline: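 Wheat seedlings were sprayed to run-off with compound suspended in acetone/water containing 250 ppm Trem 014 (200 ppm ≈ 800 g/ha; some at 40 ppm). Puccinia recondite spores were inoculated the next day. Plants were held 24 h saturated at 20° C, then 7 days at 20° C, and disease control was rated visually on a 0–100 scale against controls.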

[5] = asterisk: 40 ppm test suspension
[6] = no asterisk (standard test suspension concentration, not 40 ppm)

| SMILES | Test B rating (100 = 100% disease control, 0 = no disease control relative to the controls) [1, 5] | Test C rating (100 = 100% disease control, 0 = no disease control relative to the controls) [2, 5] | Test D rating (100 = 100% disease control, 0 = no disease control relative to the controls) [3, 5] | Test A rating (100 = 100% disease control, 0 = no disease control relative to the controls) [4, 5] | Test B rating (100 = 100% disease control, 0 = no disease control relative to the controls) [1, 6] [%] | Test C rating (100 = 100% disease control, 0 = no disease control relative to the controls) [2, 6] [%] | Test D rating (100 = 100% disease control, 0 = no disease control relative to the controls) [3, 6] [%] | Test A rating (100 = 100% disease control, 0 = no disease control relative to the controls) [4, 6] [%] |
| --- | --- | --- | --- | --- | --- | --- | --- | --- |
| Cc1cccc(F)c1-n1c(C)nc(Br)c1C(O)c1ccc(F)cc1F (stereo not drawn) [compound 341] | 100* % | 86* % | 43* % | 94* % | – | – | – | – |
| Cc1cccc(F)c1-n1c(C)nc(Br)c1C(O)c1ccc(F)cc1Cl (stereo not drawn) [compound 342] | 100* % | 98* % | 64* % | 94* % | – | – | – | – |
| Cc1cccc(Cl)c1-n1c(C)nc(Br)c1C(O)c1ccc(F)cc1Cl (stereo not drawn) [compound 343] | 100* % | 84* % | 69* % | 96* % | – | – | – | – |
| Cc1cccc(Cl)c1-n1c(C)nc(Cl)c1C(O)c1ccc(F)cc1Cl (stereo not drawn) [compound 344] | 95* % | 54* % | 72* % | 99* % | – | – | – | – |
| COc1ccc(C(O)c2c(Cl)nc(C)n2-c2c(F)cc(F)cc2Cl)c(F)c1 (stereo not drawn) [compound 345] | 100* % | 99* % | 35* % | 100* % | – | – | – | – |
| COc1ccc(C(O)c2c(Br)nc(C)n2-c2c(F)cc(F)cc2Cl)c(F)c1 (stereo not drawn) [compound 347] | 100* % | 82* % | 69* % | 100* % | – | – | – | – |
| COc1ccc(C(O)c2c(Br)nc(C)n2-c2c(F)cc(F)cc2Br)c(F)c1 (stereo not drawn) [compound 348] | 100* % | 98* % | 90* % | 100* % | – | – | – | – |
| COc1ccc(C(O)c2c(Br)nc(C)n2-c2c(F)cc(F)cc2Cl)c(Cl)c1 (stereo not drawn) [compound 349] | 100* % | 98* % | 90* % | 100* % | – | – | – | – |
| COc1ccc(C(O)c2c(Cl)nc(C)n2-c2c(F)cc(F)cc2Cl)c(Cl)c1 (stereo not drawn) [compound 350] | 100* % | 98* % | 98* % | 100* % | – | – | – | – |
| COc1ccc(C(O)c2c(Br)nc(C)n2-c2c(F)cc(F)cc2Br)c(Cl)c1 (stereo not drawn) [compound 351] | 100* % | 90* % | 95* % | 100* % | – | – | – | – |
| COc1ccc(C(O)c2cnc(CCl)n2-c2c(F)cc(F)cc2Br)c(Cl)c1 (stereo not drawn) [compound 352] | – | – | – | – | 100 | 99 | 95 | 100 |
| Cc1nc(Br)c(C(O)c2c(F)cc(F)cc2F)n1-c1ccc(Cl)cc1 (stereo not drawn) [compound 353] | – | – | – | – | 44 | 28 | 0 | 9 |
| COc1ccc(C(O)c2c(Br)ncn2-c2ccc(F)cc2Cl)c(Cl)c1 (stereo not drawn) [compound 354] | 18* % | 0* % | 0* % | 94* % | – | – | – | – |
| COc1ccc(C(O)c2c(Br)nc(Br)n2-c2ccc(F)cc2Cl)c(Cl)c1 (stereo not drawn) [compound 355] | 100* % | 100* % | 97* % | 100* % | – | – | – | – |
| COc1ccc(C(O)c2c(Cl)ncn2-c2ccc(F)cc2Cl)c(Cl)c1 (stereo not drawn) [compound 356] | 19* % | 0* % | 0* % | 95* % | – | – | – | – |
| COc1ccc(C(O)c2c(Cl)nc(Br)n2-c2ccc(F)cc2Cl)c(Cl)c1 (stereo not drawn) [compound 357] | 100* % | 99* % | 98* % | 100* % | – | – | – | – |
| COc1ccc(C(O)c2c(Br)nc(Cl)n2-c2ccc(F)cc2Cl)c(Cl)c1 (stereo not drawn) [compound 358] | 100* % | 100* % | 99* % | 100* % | – | – | – | – |
| Cc1ncc(C(O)c2c(F)cc(Cl)cc2F)n1-c1ccc(F)cc1Cl (stereo not drawn) [compound 359] | – | – | – | – | 0 | 0 | 0 | 68 |
| Cc1ncc(C(O)c2ccc(F)cc2Cl)n1-c1ccc(F)cc1F (stereo not drawn) [compound 360] | – | – | – | – | 93 | 67 | 0 | 99 |
| Cc1ncc(C(O)c2c(F)cc(F)cc2F)n1-c1ccc(Cl)cc1Cl (stereo not drawn) [compound 361] | – | – | – | – | 15 | 9 | 0 | 95 |
| Cc1nc(Br)c(C(O)c2c(F)cc(Cl)cc2F)n1-c1ccc(F)cc1Cl (stereo not drawn) [compound 362] | – | – | – | – | 85 | 0 | 0 | 99 |

— patent publication US20130143929A1, “FUNGICIDAL IMIDAZOLES” (EI DU PONT DE NEMOURS AND COMPANY, priority 2010, published 2013)
